# Laboratory results reported in ChEMBL document CHEMBL1201862, “PubChem BioAssay data set” (2004).
#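 The compound was tested at five concentrations on cells cultured in 96-well plates, with a 48-hour exposure period. GI50 marks 50% less growth.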 Active and inactive are the calls of the source. Cut-off read from the data, not from the text of the source: active = GI50 up to about 1.1 µM and inactive = higher.
# How the values were obtained:
# Experiment in all cases: DTP human tumour cell line panel, 48 h
# 786-0 = test system: 786-0
# A498 = test system: A498
# A549 = test system: A549
# ACHN = test system: ACHN
# BT-549 = test system: BT-549
# CAKI-1 = test system: CAKI-1
# CCRF-CEM = test system: CCRF-CEM
# COLO 205 = test system: COLO 205
# DU-145 = test system: DU-145
# EKVX = test system: EKVX
# HCC 2998 = test system: HCC 2998
# HCT-116 = test system: HCT-116
# HCT-15 = test system: HCT-15
# HL-60 = test system: HL-60
# HOP-62 = test system: HOP-62
# HOP-92 = test system: HOP-92
# HT-29 = test system: HT-29
# Hs-578T = test system: Hs-578T
# IGROV-1 = test system: IGROV-1
# K562 = test system: K562
# KM12 = test system: KM12
# LOX IMVI = test system: LOX IMVI
# M14 = test system: M14
# MCF7 = test system: MCF7
# MDA-MB-231 = test system: MDA-MB-231
# MDA-MB-435 = test system: MDA-MB-435
# MDA-N = test system: MDA-N
# MOLT-4 = test system: MOLT-4
# Malme-3M = test system: Malme-3M
# NCI-H226 = test system: NCI-H226
# NCI-H23 = test system: NCI-H23
# NCI-H460 = test system: NCI-H460
# NCI-H522 = test system: NCI-H522
# NCI/ADR-RES = test system: NCI/ADR-RES
# OVCAR-3 = test system: OVCAR-3
# OVCAR-4 = test system: OVCAR-4
# OVCAR-5 = test system: OVCAR-5
# OVCAR-8 = test system: OVCAR-8
# PC-3 = test system: PC-3
# RXF 393 = test system: RXF 393
# SF-268 = test system: SF-268
# SF-295 = test system: SF-295
# SF-539 = test system: SF-539
# SK-MEL-28 = test system: SK-MEL-28
# SK-MEL-2 = test system: SK-MEL-2
# SK-MEL-5 = test system: SK-MEL-5
# SK-OV-3 = test system: SK-OV-3
# SN12C = test system: SN12C
# SNB-19 = test system: SNB-19
# SNB-75 = test system: SNB-75
# SR = test system: SR
# SW-620 = test system: SW-620
# T47D = test system: T47D
# TK-10 = test system: TK-10
# U-251 = test system: U-251
# UACC-257 = test system: UACC-257
# UACC-62 = test system: UACC-62
# UO-31 = test system: UO-31
# RPMI-8226 = test system: RPMI-8226
structure (smiles),measurement,setting,value
CCCCCCCCC/C=C1/CC(CO)(COC(=O)CC(C(C)C)C(C)C)OC1=O (stereo not given),GI50,786-0,1.35 µM (inactive)
same,GI50,A498,3.14 µM (inactive)
same,GI50,A549,1.58 µM (inactive)
same,GI50,ACHN,3.17 µM (inactive)
same,GI50,BT-549,14.3 µM (inactive)
same,GI50,CAKI-1,4.18 µM (inactive)
same,GI50,CCRF-CEM,5.35 µM (inactive)
same,GI50,COLO 205,0.193 µM (active)
same,GI50,DU-145,12.4 µM (inactive)
same,GI50,EKVX,4.35 µM (inactive)
same,GI50,HCC 2998,2.39 µM (inactive)
same,GI50,HCT-116,13.2 µM (inactive)
same,GI50,HCT-15,14.4 µM
same,GI50,HL-60,0.271 µM (active)
same,GI50,HOP-62,1.12 µM (inactive)
same,GI50,HOP-92,1.28 µM (inactive)
same,GI50,HT-29,16.3 µM (inactive)
same,GI50,Hs-578T,0.109 µM (active)
same,GI50,IGROV-1,15.4 µM (inactive)
same,GI50,K562,0.36 µM (active)
same,GI50,KM12,8.85 µM (inactive)
same,GI50,LOX IMVI,11.5 µM (inactive)
same,GI50,M14,2.39 µM (inactive)
same,GI50,MCF7,9.23 µM (inactive)
same,GI50,MDA-MB-231,2.59 µM (inactive)
same,GI50,MDA-MB-435,2.79 µM (inactive)
same,GI50,MDA-N,0.21 µM (active)
same,GI50,MOLT-4,1.16 µM (inactive)
same,GI50,Malme-3M,515 nM (active)
same,GI50,NCI-H226,6.07 µM (inactive)
same,GI50,NCI-H23,13.1 µM (inactive)
same,GI50,NCI-H460,3.1 µM (inactive)
same,GI50,NCI-H522,10.4 µM (inactive)
same,GI50,NCI/ADR-RES,14.1 µM (inactive)
same,GI50,OVCAR-3,13.9 µM (inactive)
same,GI50,OVCAR-4,14.7 µM (inactive)
same,GI50,OVCAR-5,12.1 µM (inactive)
same,GI50,OVCAR-8,16 µM (inactive)
same,GI50,PC-3,6.75 µM (inactive)
same,GI50,RXF 393,13.9 µM (inactive)
same,GI50,SF-268,11.3 µM (inactive)
same,GI50,SF-295,0.675 µM (active)
same,GI50,SF-539,10.2 µM (inactive)
same,GI50,SK-MEL-28,14.4 µM (inactive)
same,GI50,SK-MEL-2,15.1 µM (inactive)
same,GI50,SK-MEL-5,3.16 µM (inactive)
same,GI50,SK-OV-3,17.4 µM (inactive)
same,GI50,SN12C,2.42 µM (inactive)
same,GI50,SNB-19,10.5 µM (inactive)
same,GI50,SNB-75,4.51 µM (inactive)
same,GI50,SR,17.8 µM (inactive)
same,GI50,SW-620,1.16 µM (inactive)
same,GI50,T47D,4.91 µM (inactive)
same,GI50,TK-10,2.89 µM (inactive)
same,GI50,U-251,11.9 µM (inactive)
same,GI50,UACC-257,12.9 µM (inactive)
same,GI50,UACC-62,12.5 µM (inactive)
same,GI50,UO-31,2.44 µM (inactive)
Cn1c(=O)c2c(nc3n2CCCC(=O)N3CCCCl)n(C)c1=O,GI50,786-0,> 100 µM (inactive)
same,GI50,A498,> 100 µM (inactive)
same,GI50,A549,> 100 µM (inactive)
same,GI50,ACHN,> 100 µM (inactive)
same,GI50,BT-549,> 100 µM (inactive)
same,GI50,CAKI-1,> 100 µM (inactive)
same,GI50,CCRF-CEM,> 100 µM (inactive)
same,GI50,COLO 205,> 100 µM (inactive)
same,GI50,DU-145,> 100 µM (inactive)
same,GI50,EKVX,> 100 µM (inactive)
same,GI50,HCC 2998,> 100 µM (inactive)
same,GI50,HCT-116,> 100 µM (inactive)
same,GI50,HCT-15,> 100 µM
same,GI50,HL-60,> 100 µM (inactive)
same,GI50,HOP-62,> 100 µM (inactive)
same,GI50,HOP-92,> 100 µM (inactive)
same,GI50,HT-29,> 100 µM (inactive)
same,GI50,Hs-578T,> 100 µM (inactive)
same,GI50,IGROV-1,> 100 µM (inactive)
same,GI50,K562,> 100 µM (inactive)
same,GI50,KM12,> 100 µM (inactive)
same,GI50,LOX IMVI,> 100 µM (inactive)
same,GI50,M14,> 100 µM (inactive)
same,GI50,MCF7,> 100 µM (inactive)
same,GI50,MDA-MB-231,> 100 µM (inactive)
same,GI50,MDA-MB-435,> 100 µM (inactive)
same,GI50,MDA-N,> 100 µM (inactive)
same,GI50,MOLT-4,> 100 µM (inactive)
same,GI50,NCI-H226,> 100 µM (inactive)
same,GI50,NCI-H23,> 100 µM (inactive)
same,GI50,NCI-H460,> 100 µM (inactive)
same,GI50,NCI-H522,> 100 µM (inactive)
same,GI50,NCI/ADR-RES,> 100 µM (inactive)
same,GI50,OVCAR-3,> 100 µM (inactive)
same,GI50,OVCAR-4,> 100 µM (inactive)
same,GI50,OVCAR-5,> 100 µM (inactive)
same,GI50,OVCAR-8,> 100 µM (inactive)
same,GI50,PC-3,> 100 µM (inactive)
same,GI50,RPMI-8226,> 100 µM (inactive)
same,GI50,RXF 393,> 100 µM (inactive)
same,GI50,SF-268,> 100 µM (inactive)
same,GI50,SF-295,> 100 µM (inactive)
same,GI50,SK-MEL-28,> 100 µM (inactive)
same,GI50,SK-MEL-2,> 100 µM (inactive)
same,GI50,SK-MEL-5,> 100 µM (inactive)
same,GI50,SK-OV-3,> 100 µM (inactive)
same,GI50,SN12C,> 100 µM (inactive)
same,GI50,SNB-19,> 100 µM (inactive)
same,GI50,SNB-75,> 100 µM (inactive)
same,GI50,SR,> 100 µM (inactive)
same,GI50,SW-620,> 100 µM (inactive)
same,GI50,T47D,> 100 µM (inactive)
same,GI50,TK-10,> 100 µM (inactive)
same,GI50,U-251,> 100 µM (inactive)
same,GI50,UACC-257,> 100 µM (inactive)
same,GI50,UACC-62,> 100 µM (inactive)
same,GI50,UO-31,> 100 µM (inactive)
